Two compounds from PMC9898226, “Emergence of a proton exchange-based isomerization and lactonization mechanism in the plant coumarin synthase COSY” (Nature Communications, 2023) can be followed below.

Assay type in all cases: biochemical
One test deals with T1, SbCOSY (Sorghum bicolor, UniProt C5Z4D6).
T1 construct: gene SORBI_3010G043700
T1 sequence (C5Z4D6 1-456): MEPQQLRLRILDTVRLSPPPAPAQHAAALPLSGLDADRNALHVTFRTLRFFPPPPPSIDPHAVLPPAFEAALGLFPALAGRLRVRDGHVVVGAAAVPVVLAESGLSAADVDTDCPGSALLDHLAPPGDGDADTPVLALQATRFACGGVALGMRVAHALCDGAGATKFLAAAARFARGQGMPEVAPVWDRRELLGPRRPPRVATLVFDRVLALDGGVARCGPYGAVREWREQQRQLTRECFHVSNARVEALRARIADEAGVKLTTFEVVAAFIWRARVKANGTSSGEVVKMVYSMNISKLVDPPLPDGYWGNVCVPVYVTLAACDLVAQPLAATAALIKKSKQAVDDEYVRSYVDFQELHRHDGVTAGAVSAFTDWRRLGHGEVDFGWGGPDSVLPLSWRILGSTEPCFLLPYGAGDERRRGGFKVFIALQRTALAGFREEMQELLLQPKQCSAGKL
Briefly: coupled At4CL1 assay, LC-MS of scopoletin. The conditions noted are these: substrate made in situ by At4CL1 from 6-hydroxyferulic acid, ATP, CoA, Mg2+; 20 mM HEPES; spontaneous background.

In the next test the target is T2, StCOSY (Solanum tuberosum, UniProt M0ZYT4).
T2 sequence (M0ZYT4 1-444): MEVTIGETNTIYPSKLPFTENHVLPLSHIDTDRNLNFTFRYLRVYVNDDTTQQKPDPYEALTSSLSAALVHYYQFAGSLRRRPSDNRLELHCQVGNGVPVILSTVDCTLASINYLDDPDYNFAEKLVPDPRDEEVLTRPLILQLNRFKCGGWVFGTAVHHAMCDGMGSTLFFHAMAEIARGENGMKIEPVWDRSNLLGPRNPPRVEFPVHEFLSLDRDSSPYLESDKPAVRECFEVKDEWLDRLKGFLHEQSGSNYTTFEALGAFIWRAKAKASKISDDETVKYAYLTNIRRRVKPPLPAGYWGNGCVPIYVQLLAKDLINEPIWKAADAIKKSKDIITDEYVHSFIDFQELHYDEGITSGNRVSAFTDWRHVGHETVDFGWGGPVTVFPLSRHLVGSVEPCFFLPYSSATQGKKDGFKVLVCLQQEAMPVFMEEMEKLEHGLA
Briefly: coupled At4CL1 assay, LC-MS of scopoletin. Particulars: substrate made in situ by At4CL1 from 6-hydroxyferulic acid, ATP, CoA, Mg2+; 20 mM HEPES; spontaneous background.

In test [1] the target is T3, AtCOSY (Arabidopsis thaliana, UniProt Q8LF28).
T3 construct: gene COSY; N-terminal 8xHis tag with TEV site (pHis8-4), tag cleaved; E. coli BL21(DE3); domains 1-181, 182-229, 230-451
T3 sequence (Q8LF28 1-451): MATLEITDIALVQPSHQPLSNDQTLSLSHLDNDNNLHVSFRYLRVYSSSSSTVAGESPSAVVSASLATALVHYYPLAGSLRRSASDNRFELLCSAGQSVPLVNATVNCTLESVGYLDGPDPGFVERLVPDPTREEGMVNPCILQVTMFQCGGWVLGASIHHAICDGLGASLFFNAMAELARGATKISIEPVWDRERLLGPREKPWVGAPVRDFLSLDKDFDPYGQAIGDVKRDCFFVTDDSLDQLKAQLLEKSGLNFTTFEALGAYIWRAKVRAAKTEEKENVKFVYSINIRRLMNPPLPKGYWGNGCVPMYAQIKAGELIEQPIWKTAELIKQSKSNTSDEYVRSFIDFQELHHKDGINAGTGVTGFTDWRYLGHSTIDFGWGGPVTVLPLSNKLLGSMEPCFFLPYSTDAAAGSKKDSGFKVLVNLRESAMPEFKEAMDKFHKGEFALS
Kind of test: coupled At4CL1 assay, LC-MS of scopoletin. Particulars: substrate made in situ by At4CL1 from 6-hydroxyferulic acid, ATP, CoA, Mg2+; 20 mM HEPES; spontaneous background.

The target of a further test is T4, GmCOSY (Glycine max, UniProt A0A0R0H5A1).
T4 construct: gene LOC100817021
T4 sequence (A0A0R0H5A1 1-452): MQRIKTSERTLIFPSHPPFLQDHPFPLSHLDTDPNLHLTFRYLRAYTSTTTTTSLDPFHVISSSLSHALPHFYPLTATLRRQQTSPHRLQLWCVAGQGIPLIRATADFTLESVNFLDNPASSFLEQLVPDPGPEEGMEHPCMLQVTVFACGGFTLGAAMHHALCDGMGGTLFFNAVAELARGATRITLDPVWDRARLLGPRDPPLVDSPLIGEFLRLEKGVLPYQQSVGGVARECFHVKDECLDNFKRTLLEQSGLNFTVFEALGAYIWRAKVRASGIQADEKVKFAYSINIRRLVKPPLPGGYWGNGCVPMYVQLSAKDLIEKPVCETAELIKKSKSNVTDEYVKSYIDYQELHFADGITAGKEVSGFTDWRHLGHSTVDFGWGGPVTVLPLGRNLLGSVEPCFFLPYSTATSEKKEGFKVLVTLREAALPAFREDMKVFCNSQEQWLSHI
Kind of test: coupled At4CL1 assay, LC-MS of scopoletin. The conditions noted are these: substrate made in situ by At4CL1 from 6-hydroxyferulic acid, ATP, CoA, Mg2+; 20 mM HEPES; spontaneous background.

For test [2], the target named is T3, AtCOSY. Kind of test: coupled At4CL1 assay, LC-MS of umbelliferone. Particulars: substrate made in situ by At4CL1 from 2-hydroxy-p-coumaric acid (CAS 614-86-8), ATP, CoA, Mg2+; 20 mM HEPES.

As for `COc1cc(/C=C/C(=O)SCCNC(=O)CCNC(=O)[C@H](O)C(C)(C)COP(=O)(O)OP(=O)(O)OC[C@H]2O[C@@H](n3cnc4c(N)ncnc43)[C@H](O)[C@@H]2OP(=O)(O)O)c(O)cc1O` [6-hydroxyferuloyl-CoA], the “coupled At4CL1 assay, LC-MS of scopoletin” value was “GmCOSY, StCOSY and SbCOSY contain coumarin synthase activity comparable to that of AtCOSY” at SbCOSY; “GmCOSY, StCOSY and SbCOSY contain coumarin synthase activity comparable to that of AtCOSY” at StCOSY; “addition of AtCOSY resulted in significant acceleration of coumarin production” on AtCOSY [1]; “GmCOSY, StCOSY and SbCOSY contain coumarin synthase activity comparable to that of AtCOSY” on GmCOSY.

Take `CC(C)(COP(=O)(O)OP(=O)(O)OC[C@H]1O[C@@H](n2cnc3c(N)ncnc32)[C@H](O)[C@@H]1OP(=O)(O)O)[C@@H](O)C(=O)NCCC(=O)NCCSC(=O)/C=C/c1ccc(O)cc1O` [2-hydroxy-p-coumaroyl CoA]: on AtCOSY [2], the “coupled At4CL1 assay, LC-MS of umbelliferone” value was “addition of AtCOSY resulted in significant acceleration of coumarin production”.
